Measured values taken from patent US9278086B2, “Combination therapy and uses thereof for treatment and prevention of parasitic infection and disease” (The Royal Institution for the Advancement of …, priority 2010, dated 2016).

How the values were obtained:
Type in all cases: in vivo
Plasmodium berghei ANKA = Plasmodium berghei ANKA infection (cerebral malaria model) in C57BL/6J mice, parasitemia and survival; conditions: Cysteamine alone
Experimental: FIGS. 8A and 8B show the results of two independent experiments on the effect of cysteamine and artesunate combinations on the progression of Plasmodium berghei ANKA infection (parasitemia). Groups of 5 adult 18-20 g C57BL/6J males and females were infected intravenously with 1×10^6 erythrocytes parasitized with P. berghei ANKA at time “0”. Two hours later, mice were injected i.p with either Artemisinin alone or with Artemisinin/Cysteamine combinations (at the indicated concentrations in mg/kg body weight). In the case of the latter, Artemisinin was injected first in one quadrant, and cysteamine was injected second, 10-15 minutes later in another quadrant. The drug treatment was further repeated at days 1, 2 and 3 post-infection to emulate the standard 4-day test used in anti-malarial drug discovery. Starting at day 5, blood was collected, thin blood smears were prepared, and parasitemia was determined (400 erythrocytes counted, expressed as percentage parasitized erythrocytes). Error bars show standard deviations on the mean; and
FIGS. 9A and 9B show the results of two independent experiments on the effect of cysteamine and artesunate combinations on the survival of Plasmodium berghei ANKA-infected mice. Infection and drug administration were performed as described above for FIGS. 8A and 8B. Animals were monitored for the appearance and severity of cerebral symptoms (CM phase, shown as rectangle in graph), and moribund animals were euthanized, and time of death was recorded.
Intravenous infection with Plasmodium berghei ANKA is an accepted mouse model of cerebral malaria (CM) (Hunt, N. H. et al. 2006, Int. J. Parasitol. 36: 569-582). The infection causes the following pathology. First, there is appearance of blood parasitemia, starting at days 3 or 4, which can go up to 10% by day 7-8. Starting at day 5-6, there is emergence of cerebral symptoms caused by permeability of the blood brain barrier, concomitant to trapping of parasitized red cells in the microvasculature and acute pathological host inflammatory response in situ. This cerebral phase quickly progresses from tremors, to paralysis, to coma, and is uniformly lethal in mice by days 8-10. In this model, progress of infection and possibly drug effects may be monitored by a) appearance and intensity of blood parasitemia (between days 5-8), b) appearance of cerebral symptoms, and c) lethality.

Plasmodium chabaudi [1] = experiment: Progression, resolution and survival of lethal P. chabaudi infection (10^6 pRBC i.v.) in A/J mice; conditions: Cys alone 60 mg/kg, days 0-3
Experimental: A/J and C57BL/6 (B6) mice were purchased from the Jackson Laboratories (Bar Harbor, Me.) and were housed at McGill University according to the guidelines of the Canadian Council on Animal Care. An LDH virus-free isolate of P. chabaudi AS was maintained by weekly passage in A/J mice. Mice were infected intravenously into the tail vein (i.v.) with 10^6 or 10^7 pRBC suspended in pyrogen-free saline. Following infection, the percentage of pRBC was determined daily on thin blood smears stained with Dif-Quik™ (Dade Behring, Newark, Del.), as described (Fortin A, et al. (2001) Proc Natl Acad Sci USA 98: 10793-10798).
Cysteamine hydrochloride (Sigma, Burlington ON) was prepared in PBS. Chloroquine hydrochloride, artesunate and dihydroartemisinin were provided by Dafra Pharmaceuticals; chloroquine was prepared in PBS, artesunate and DHA were prepared in 5% sodium bicarbonate and diluted in water to appropriate concentrations. All solutions were prepared fresh daily, filter sterilized and injections were performed intra-peritoneally (i.p) or subcutaneously (s.c.) for 4 days or according to treatment regimen. Mice were weighed prior to treatment to determine appropriate doses and injection volumes ranged from 100-400 μL per mouse. In the case of animals treated with two drugs, artemisinin derivatives were administered first (due to the short half life of cysteamine), followed by cysteamine 5-10 minutes later on alternate sides. Untreated control animals were injected with PBS alone.
It was investigated if low dose Cys could potentiate standard doses of ART that show therapeutic activity in vivo and concurrently determined possible long-term effects on patent parasitemia, resolution of infection and survival in a lethal infection model. In this protocol, mice were infected with 10^6 pRBC P. chabaudi (i.v.) and treated with Cys (60 mg/kg) and/or ART (0.5, 1, 2, 5 and 10 mg/kg) for 4 days (days 0-3), while blood parasitemia and survival were followed for 22 days. Control animals treated with either PBS or Cys alone (60 mg/kg) developed high parasite burdens, which peaked at day 6, and all mice succumbed to the infection by day 7 (FIGS. 5A and 5C). […] Likewise, although all mice treated with 0.5 mg/kg ART succumbed to the infection early (day 8), mice additionally receiving Cys survived until day 9; moreover, addition of Cys to 1.0 mg/kg ART completely rescued animals from lethality of infection, with 100% survival in this group (FIGS. 5B, 5C).

Plasmodium chabaudi [2] = experiment: P. chabaudi infection (10^5 pRBC i.v.) in A/J mice, continuous daily cysteamine treatment, blood parasitemia
Experimental: A/J and C57BL/6 (B6) mice were purchased from the Jackson Laboratories (Bar Harbor, Me.) and were housed at McGill University according to the guidelines of the Canadian Council on Animal Care. An LDH virus-free isolate of P. chabaudi AS was maintained by weekly passage in A/J mice. […] Following infection, the percentage of pRBC was determined daily on thin blood smears stained with Dif-Quik™ (Dade Behring, Newark, Del.), as described (Fortin A, et al. (2001) Proc Natl Acad Sci USA 98: 10793-10798).
Cysteamine hydrochloride (Sigma, Burlington ON) was prepared in PBS. […]
To gain more insight into the anti-malarial effect of cysteamine (Cys) in vivo, the pharmacokinetic characteristics (plasma level) of Cys administered through the sub-cutaneous (s.c.) and intra-peritoneal (i.p) routes was compared. […] Parasitemia was monitored on thin blood smears at days 5, 6 and 7 following infection (FIG. 1B). […]
It was next determined whether Cys at equivalent dosing to that used in the clinical treatment of nephropathic cystinosis in humans has an effect on the course and severity of P. chabaudi infection in mice. […] The efficacy of different regimens of 50 mg/kg Cys s.c. (number of injections, interval between injections) on replication of P. chabaudi in vivo was evaluated. […]

`NCCS` [Cysteamine] was tested, and the “effect on survival of P. berghei-infected animals” value (Plasmodium berghei ANKA) was “minor positive effect on survival”, the “day at which parasite burdens peaked” value (Plasmodium chabaudi [1]) was 6 days and the “day by which all mice succumbed to the infection” value (Plasmodium chabaudi [1]) was at most 7 days. The “reduction in parasitemia relative to saline injected controls” value (Plasmodium chabaudi [2]; 120 mg/kg Cys daily, either s.c. or i.p., day 5 and 6, p<0.01) was 50% and the “reduction of blood parasitemia” value (Plasmodium chabaudi [2]; Cys s.c. daily, all regimens: 1×150 mg/kg, 3×50 or 4×50 mg/kg at 2 hr, 3×50 mg/kg at 1 hr intervals (strongest), days 5, 6, 7) was 40-67%.
